Values of other authors in patent US20120289565A1, “COMBINATIONS OF TOLTERODINE AND SALIVARY STIMULANTS FOR THE TREATMENT OF OVERACTIVE BLADDER” (TheraVida, Inc., priority 2011, published 2012).

Conditions: 5 mg of pilocarpine

For CC[C@@H]1C(=O)OC[C@@H]1Cc1cncn1C [pilocarpine], the “time of maximum saliva output after administration” value is given as “about 30 minutes”.
